Each structure is given as a SMILES string. pIC50: −log10 of the molar value.

In the assay the target is T1, human JAK2 (Homo sapiens, UniProt O60674).
T1 construct: JAK2 (a.a. 828-1132); His tag (N); made in house; host or cells: insect cells (baculovirus)
T1 sequence (O60674 828-1132): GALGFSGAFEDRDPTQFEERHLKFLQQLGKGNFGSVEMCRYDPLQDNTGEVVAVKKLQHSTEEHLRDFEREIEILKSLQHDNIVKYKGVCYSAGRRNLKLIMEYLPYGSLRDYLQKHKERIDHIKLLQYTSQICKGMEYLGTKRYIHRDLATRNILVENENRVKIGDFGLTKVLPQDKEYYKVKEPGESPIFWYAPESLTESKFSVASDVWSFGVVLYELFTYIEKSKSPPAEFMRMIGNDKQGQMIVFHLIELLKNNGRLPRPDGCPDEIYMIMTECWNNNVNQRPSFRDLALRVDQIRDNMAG
In words: In vitro JAK kinase assay (HTRF, phosphorylation of biotinylated peptide). As to conditions: catalytic domain a.a. 828-1132, 30 μM ATP, 500 nM peptide, room temperature 1 hr; read-out: JAK-2 IC50. The assay is classed as biochemical. The method, boiled down:
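IC50 from HTRF detection (Eu-Py20 antibody, SA-APC) of biotinylated-peptide phosphorylation (500 nM), run 1 h at RT. Enzyme: N-His human JAK2 kinase domain a.a. 828-1132 from insect cells; ATP 30 μM; buffer 50 mM Tris pH 7.8 with NaCl, DTT, BSA.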
(In general: In TR-FRET formats the signal depends on donor and acceptor labels being close together.)
Usually pIC50 stands for −log10 of the IC50, conventionally taken in molar units. On to `N#CCC(C1CCC1)n1cc(-c2ccnc(Nc3ccc(N4CCCCC4=O)cc3)n2)cn1` (racemic) [Example 174, 3-cyclobutyl-3-(4-(2-(4-(2-oxopiperidin-1-yl)phenylamino)pyrimidin-4-yl)-1H-pyrazol-1-yl)propanenitrile], for which the pIC50 was above 7.00. On to `N#CCC(C1CCC1)n1cc(-c2ccnc(Nc3ccc(N4CCOCC4=O)cc3)n2)cn1` (racemic) [Example 175, 3-cyclobutyl-3-(4-(2-(4-(3-oxomorpholino)phenylamino)pyrimidin-4-yl)-1H-pyrazol-1-yl)propanenitrile], for which the pIC50 is above 7.00. For `N#CCC(C1CCC1)n1cc(-c2ccnc(Nc3cccc(-c4cnco4)c3)n2)cn1` (racemic) [Example 176, 3-cyclobutyl-3-(4-(2-(3-(oxazol-5-yl)phenylamino)pyrimidin-4-yl)-1H-pyrazol-1-yl)propanenitrile] the value was above 7.00; for `N#CCC(C1CC1)n1cc(-c2ccnc(Nc3ccc(N4CCOCC4)cc3)n2)cn1` (racemic) [Example 177, 3-cyclopropyl-3-(4-(2-(4-morpholinophenylamino)pyrimidin-4-yl)-1H-pyrazol-1-yl)propanenitrile], above 7.00; for `N#CCC(C1CC1)n1cc(-c2ccnc(Nc3ccc(-n4cccn4)cc3)n2)cn1` (racemic) [Example 178, 3-(4-(2-(4-(1H-pyrazol-1-yl)phenylamino)pyrimidin-4-yl)-1H-pyrazol-1-yl)-3-cyclopropylpropanenitrile], above 7.00.

Consider `N#CCC(C1CC1)n1cc(-c2ccnc(Nc3ccc(N4CCCCC4=O)cc3)n2)cn1` (racemic) [Example 179, 3-cyclopropyl-3-(4-(2-(4-(2-oxopiperidin-1-yl)phenylamino)pyrimidin-4-yl)-1H-pyrazol-1-yl)propanenitrile], for which the pIC50 is above 7.00.

In the case of `N#CCC(C1CC1)n1cc(-c2ccnc(Nc3ccc(N4CCOCC4=O)cc3)n2)cn1` (racemic) [Example 180, 3-cyclopropyl-3-(4-(2-(4-(3-oxomorpholino)phenylamino)pyrimidin-4-yl)-1H-pyrazol-1-yl)propanenitrile], the pIC50 was above 7.00. The result for `N#CCC(C1CC1)n1cc(-c2ccnc(Nc3cccc(-c4cnco4)c3)n2)cn1` (racemic) [Example 181, 3-cyclopropyl-3-(4-(2-(3-(oxazol-5-yl)phenylamino)pyrimidin-4-yl)-1H-pyrazol-1-yl)propanenitrile] reads above 7.00; that for `C[C@@H]1CN(S(=O)(=O)Nc2ccc(Nc3nccc(-c4cnn(C(CC#N)C5CCCC5)c4)n3)cc2)C[C@H](C)O1` (mixture of isomers) [Example 182, N-(4-(4-(1-(2-cyano-1-cyclopentylethyl)-1H-pyrazol-4-yl)pyrimidin-2-ylamino)phenyl)-(cis)-2,6-dimethylmorpholine-4-sulfonamide], above 7.00. For `N#CCC(C1CCCC1)n1cc(-c2ccnc(Nc3ccc(NC(=O)c4ccccc4)cc3)n2)cn1` (racemic) [Example 183, N-(4-(4-(1-(2-cyano-1-cyclopentylethyl)-1H-pyrazol-4-yl)pyrimidin-2-ylamino)phenyl)benzamide] the value was above 7.00. For `CS(=O)(=O)CS(=O)(=O)Nc1ccc(Nc2nccc(-c3cnn(C(CC#N)C4CCCC4)c3)n2)cc1` (racemic) [Example 184, N-(4-(4-(1-(2-cyano-1-cyclopentylethyl)-1H-pyrazol-4-yl)pyrimidin-2-ylamino)phenyl)-1-(methylsulfonyl)methanesulfonamide] the value was above 7.00; for `N#CCC(C1CCCC1)n1cc(-c2ccnc(Nc3ccc(NC(=O)c4cc(F)cc(F)c4)cc3)n2)cn1` (racemic) [Example 185, N-(4-(4-(1-(2-cyano-1-cyclopentylethyl)-1H-pyrazol-4-yl)pyrimidin-2-ylamino)phenyl)-3,5-difluorobenzamide], above 7.00. As for `CN(C)S(=O)(=O)Nc1ccc(Nc2nccc(-c3cnn(C(CC#N)C4CCCC4)c3)n2)cc1` (racemic) [Example 186, NA-(4-(4-(1-(2-cyano-1-cyclopentylethyl)-1H-pyrazol-4-yl)pyrimidin-2-ylamino)phenyl)-N,N-dimethylsulfamide], the pIC50 was above 7.00. For `Cc1cc(C(=O)Nc2ccc(Nc3nccc(-c4cnn(C(CC#N)C5CCCC5)c4)n3)cc2)no1` (racemic) [Example 187, N-(4-(4-(1-(2-cyano-1-cyclopentylethyl)-1H-pyrazol-4-yl)pyrimidin-2-ylamino)phenyl)-5-methylisoxazole-3-carboxamide] the value was above 7.00.

Consider `N#CCC(C1CCCC1)n1cc(-c2ccnc(Nc3ccc(NC(=O)c4ccno4)cc3)n2)cn1` (racemic) [Example 188, N-(4-(4-(1-(2-cyano-1-cyclopentylethyl)-1H-pyrazol-4-yl)pyrimidin-2-ylamino)phenyl)isoxazole-5-carboxamide], for which the pIC50 was above 7.00. Regarding `Cc1noc(C)c1C(=O)Nc1ccc(Nc2nccc(-c3cnn(C(CC#N)C4CCCC4)c3)n2)cc1` (racemic) [Example 189, N-(4-(4-(1-(2-cyano-1-cyclopentylethyl)-1H-pyrazol-4-yl)pyrimidin-2-ylamino)phenyl)-3,5-dimethylisoxazole-4-carboxamide], the pIC50 was above 7.00.

Take `Cn1ccc(S(=O)(=O)Nc2ccc(Nc3nccc(-c4cnn(C(CC#N)C5CCCC5)c4)n3)cc2)n1` (racemic) [Example 190, N-(4-(4-(1-(2-cyano-1-cyclopentylethyl)-1H-pyrazol-4-yl)pyrimidin-2-ylamino)phenyl)-1-methyl-1H-pyrazole-3-sulfonamide]: the pIC50 was above 7.00. For `N#CCC(C1CCCC1)n1cc(-c2ccnc(Nc3ccc(N4CCCS4(=O)=O)cc3)n2)cn1` (racemic) [Example 192, 3-cyclopentyl-3-(4-(2-(4-(1,1-dioxidoisothiazolidin-2-yl)phenyl)aminopyrimidin-4-yl)-1H-pyrazol-1-yl)propanenitrile] the value was above 7.00; for `Cc1nc(-c2ccc(S(=O)(=O)Nc3ccc(Nc4nccc(-c5cnn(C(CC#N)C6CCCC6)c5)n4)cc3)s2)cs1` (racemic) [Example 193, N-(4-(4-(1-(2-cyano-1-cyclopentylethyl)-1H-pyrazol-4-yl)pyrimidin-2-ylamino)phenyl)-5-(2-methylthiazol-4-yl)thiophene-2-sulfonamide], above 7.00. For `Cc1cccc(S(=O)(=O)Nc2ccc(Nc3nccc(-c4cnn(C(CC#N)C5CCCC5)c4)n3)cc2)n1` (racemic) [Example 194, N-(4-(4-(1-(2-cyano-1-cyclopentylethyl)-1H-pyrazol-4-yl)pyrimidin-2-ylamino)phenyl)-6-methylpyridine-2-sulfonamide], the pIC50 was above 7.00. The result for `N#CCC(C1CCCC1)n1cc(-c2ccnc(Nc3ccc(NS(=O)(=O)c4ccc(-c5ccccn5)s4)cc3)n2)cn1` (racemic) [Example 195, N-(4-(4-(1-(2-cyano-1-cyclopentylethyl)-1H-pyrazol-4-yl)pyrimidin-2-ylamino)phenyl)-5-(pyridin-2-yl)thiophene-2-sulfonamide] reads above 7.00; that for `N#CCC(C1CCCC1)n1cc(-c2ccnc(Nc3ccc(NS(=O)(=O)c4ccc(Cl)s4)cc3)n2)cn1` (racemic) [Example 196, 5-chloro-N-(4-(4-(1-(2-cyano-1-cyclopentylethyl)-1H-pyrazol-4-yl)pyrimidin-2-ylamino)phenyl)thiophene-2-sulfonamide], above 7.00. The result for `N#CCC(C1CCCC1)n1cc(-c2ccnc(Nc3ccc(NS(=O)(=O)c4ccc(N5CCOCC5)nc4)cc3)n2)cn1` (racemic) [Example 197, N-(4-(4-(1-(2-cyano-1-cyclopentylethyl)-1H-pyrazol-4-yl)pyrimidin-2-ylamino)phenyl)-6-morpholinopyridine-3-sulfonamide] reads above 7.00; that for `N#CCC(C1CCCC1)n1cc(-c2ccnc(Nc3ccc(NC(=O)O[C@@H]4CCOC4)cc3)n2)cn1` (mixture of isomers) [Example 199, (R)-tetrahydrofuran-3-yl 4-(4-(1-(2-cyano-1-cyclopentylethyl)-1H-pyrazol-4-yl)pyrimidin-2-ylamino)phenylcarbamate], above 7.00; that for `Cn1ccc(S(=O)(=O)Nc2cccc(Nc3nccc(-c4cnn(C(CC#N)C5CCCC5)c4)n3)c2)n1` (racemic) [Example 201, N-(3-(4-(1-(2-cyano-1-cyclopentylethyl)-1H-pyrazol-4-yl)pyrimidin-2-ylamino)phenyl)-1-methyl-1H-pyrazole-3-sulfonamide], above 7.00.

On to `CN(C)S(=O)(=O)Nc1cccc(Nc2nccc(-c3cnn(C(CC#N)C4CCCC4)c3)n2)c1` (racemic) [Example 202, NA-(3-(4-(1-(2-cyano-1-cyclopentylethyl)-1H-pyrazol-4-yl)pyrimidin-2-ylamino)phenyl)-N,N-dimethylsulfamide], for which the pIC50 was above 7.00.

With `N#CCC(C1CCCC1)n1cc(-c2ccnc(Nc3ccc(NC(=O)CN4CCCC4)cc3)n2)cn1` (racemic) [Example 203, N-(4-(4-(1-(2-cyano-1-cyclopentylethyl)-1H-pyrazol-4-yl)pyrimidin-2-ylamino)phenyl)-2-(pyrrolidin-1-yl)acetamide], the pIC50 was above 7.00. For `N#CCC(C1CCCC1)n1cc(-c2ccnc(Nc3ccc(NC(=O)CN4CCC(O)CC4)cc3)n2)cn1` (racemic) [Example 205, N-(4-(4-(1-(2-cyano-1-cyclopentylethyl)-1H-pyrazol-4-yl)pyrimidin-2-ylamino)phenyl)-2-(4-hydroxypiperidin-1-yl)acetamide], the pIC50 is above 7.00. For `N#CCC(C1CCCC1)n1cc(-c2ccnc(Nc3ccc(NC(=O)CN4CCNC(=O)C4)cc3)n2)cn1` (racemic) [Example 206, N-(4-(4-(1-(2-cyano-1-cyclopentylethyl)-1H-pyrazol-4-yl)pyrimidin-2-ylamino)phenyl)-2-(3-oxopiperazin-1-yl)acetamide] the value was above 7.00.
